Assay: Influence of pH on content of the compound in solution after storage (Example 1, HPLC)
Format: physicochemical
Settings: 1 mg/mL in Britton-Robinson buffer at pH 2, 3, 4, 5 and 6, 1 month storage at 25 or 40° C.
Procedure: A solution was prepared so as to contain the compound at 1 mg/mL of a solvent, and divided as aliquots in clear test tubes and the tubes were tightly sealed. The Britton-Robinson buffer was used as the solvent to prepare sample solutions at pH 2, 3, 4, 5 and 6.
After 1 month storage of these sample solutions under each temperature condition of 25 or 40° C., the contents of the compound were determined by HPLC under the following measurement conditions.
Sample solution: 1 mL of specimen/25 mL of mobile phase
Temperature: Room temperature Mobile phase: 1 M Et3N (adjusted at pH 8 with AcOH):CH3CN:H2O=50:250:700 Flow rate: […]
Loaded volume: 20 μL Quantification method: Corrected area percentage

Question: With `Cl.O.O.O.O=C1CCC(c2ccc(Nc3ccncc3)cc2)=NN1` [the compound, 6-[4-(4-pyridylamino)phenyl]-4,5-dihydro-3(2H)-pyridazinone hydrochloride trihydrate] as the compound, how does the “remaining ratio of the compound” value read?
Answer: highest at pH 5 to 6

Source: patent US20090062295A1, “Pharmaceutical Products” (MITSUBISHI PHARMA CORPORATION, priority 2005, published 2009)
